Measurements published in ChEMBL document CHEMBL1201862, “PubChem BioAssay data set” (2004).
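Cells were grown in 96-well plates and exposed to each compound for 48 hours at five concentrations; endpoints were interpolated linearly between bracketing concentrations, or set to the highest concentration if not reached. GI50 is the concentration that inhibits growth by half.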 Active and inactive are the calls of the source. No stated cut-off is given here; in the data, active = GI50 up to about 1.1 µM and inactive = higher.

What was measured:
Test in all cases: NCI tumour cell line growth inhibition, 48 h
ACHN = test system: ACHN
HCT-116 = test system: HCT-116
HL-60 = test system: HL-60
KM12 = test system: KM12
LOX IMVI = test system: LOX IMVI
Malme-3M = test system: Malme-3M
NCI-H226 = test system: NCI-H226
NCI-H23 = test system: NCI-H23
NCI-H460 = test system: NCI-H460
OVCAR-4 = test system: OVCAR-4
OVCAR-5 = test system: OVCAR-5
RXF 393 = test system: RXF 393
SF-268 = test system: SF-268
SF-539 = test system: SF-539
SN12C = test system: SN12C
SW-620 = test system: SW-620
CAKI-1 = test system: CAKI-1
A498 = test system: A498

SMILES | GI50 (ACHN) | GI50 (HCT-116) | GI50 (HL-60) | GI50 (KM12) | GI50 (LOX IMVI) | GI50 (Malme-3M) | GI50 (NCI-H226) | GI50 (NCI-H23) | GI50 (NCI-H460) | GI50 (OVCAR-4) | GI50 (OVCAR-5) | GI50 (RXF 393) | GI50 (SF-268) | GI50 (SF-539) | GI50 (SN12C) | GI50 (SW-620) | GI50 (CAKI-1) | GI50 (A498)
COC(=O)[C@]12CSCN1C(=O)C(C(C)=O)=NN2C(=O)[C@](OC)(c1ccccc1)C(F)(F)F | > 100 µM (inactive) | > 100 µM (inactive) | > 10 µM (inactive) | > 100 µM (inactive) | > 100 µM (inactive) | > 100 µM (inactive) | 88.9 µM (inactive) | > 100 µM (inactive) | > 100 µM (inactive) | > 100 µM (inactive) | > 100 µM (inactive) | 90.6 µM (inactive) | > 100 µM (inactive) | > 100 µM (inactive) | > 100 µM (inactive) | > 100 µM (inactive) |  | 
CC(=O)OC(C)(C)C1CCC(C)(C(O)COc2ccc(CCNC(=O)c3ccccc3)cc2)O1 (centres undefined) | 54.1 µM (inactive) | 28.8 µM (inactive) | 15.5 µM (inactive) | 60.8 µM (inactive) | 31.4 µM (inactive) | 63.5 µM (inactive) |  | > 100 µM (inactive) | 61.8 µM (inactive) | 63.2 µM (inactive) | > 100 µM (inactive) | 6.68 µM (inactive) | > 100 µM (inactive) | 60.8 µM (inactive) | > 100 µM (inactive) | > 100 µM (inactive) | > 100 µM (inactive) | 
CCCCCCC1CCC2CCCC(C)N12 (centres undefined) | 68.1 µM (inactive) | 51.1 µM (inactive) | 17.8 µM (inactive) | 30.6 µM (inactive) |  | > 10 µM (inactive) | > 100 µM (inactive) | 34.4 µM (inactive) | 23.7 µM (inactive) | 46.2 µM (inactive) |  |  | 43.4 µM (inactive) | 76 µM (inactive) | 95.9 µM (inactive) | 14.8 µM (inactive) | > 100 µM (inactive) | 
COC(=O)/C(=C/c1ccc(OC)cc1)C(C(=O)O)=C1CCCCC1 | > 100 µM (inactive) | > 100 µM (inactive) | > 100 µM (inactive) | > 100 µM (inactive) | > 100 µM (inactive) |  | > 100 µM (inactive) | > 100 µM (inactive) | > 100 µM (inactive) | > 100 µM (inactive) | > 100 µM (inactive) | > 100 µM (inactive) |  | > 100 µM (inactive) | > 100 µM (inactive) | > 100 µM (inactive) | > 100 µM (inactive) | > 100 µM (inactive)
C=CC1=C(C)/C(=C/C2=NC(=C\c3[nH]c(CC4NC(=O)C(C)/C4=C\C)c(C)c3CCC(=O)O)/C(CC(=O)O)=C2C)NC1=O (centres undefined) | > 100 µM (inactive) | > 100 µM (inactive) | > 100 µM (inactive) | > 100 µM (inactive) | > 100 µM (inactive) | > 100 µM (inactive) | > 100 µM (inactive) | > 100 µM (inactive) | > 100 µM (inactive) | > 100 µM (inactive) | > 100 µM (inactive) | > 100 µM (inactive) | > 100 µM (inactive) | > 100 µM (inactive) | > 100 µM (inactive) | > 100 µM (inactive) | > 100 µM (inactive) | 
Cc1cc2c(c(C(N)=O)c1C)-c1cccc(Cl)c1C2=O | > 100 µM (inactive) | > 100 µM (inactive) | > 100 µM (inactive) | > 100 µM (inactive) | > 100 µM (inactive) | > 100 µM (inactive) |  | > 100 µM (inactive) | > 100 µM (inactive) | > 100 µM (inactive) | > 100 µM (inactive) |  | > 100 µM (inactive) | > 100 µM (inactive) | > 100 µM (inactive) | > 100 µM (inactive) |  | > 100 µM (inactive)
Brc1ccc(N2C[N+](c3ccc(Br)cc3)=NC(c3ccccc3)=N2)cc1.[O-][Cl+3]([O-])([O-])[O-] | 50.2 µM (inactive) | 49.2 µM (inactive) | 30.3 µM (inactive) | > 100 µM (inactive) |  | > 100 µM (inactive) | > 100 µM (inactive) | 46.9 µM (inactive) | > 100 µM (inactive) | > 100 µM (inactive) | > 100 µM (inactive) | > 100 µM (inactive) | 99.3 µM (inactive) | > 100 µM (inactive) | > 100 µM (inactive) | > 100 µM (inactive) | > 100 µM (inactive) | > 100 µM (inactive)
CCCCc1ccc2[n+](c1)C(C(=O)OCC)=PC2 (centres undefined) | > 100 µM (inactive) | > 100 µM (inactive) | 40.7 µM (inactive) | > 100 µM (inactive) |  | > 100 µM (inactive) |  | 86.1 µM (inactive) | > 100 µM (inactive) | > 100 µM (inactive) | > 100 µM (inactive) | 31.9 µM (inactive) | > 100 µM (inactive) | > 100 µM (inactive) | > 100 µM (inactive) | > 100 µM (inactive) | > 100 µM (inactive) | > 100 µM (inactive)
Cc1cc(N)c(C)c2c1[nH]c1ccc(O)cc12 | > 100 µM (inactive) | > 100 µM (inactive) | 79.3 µM (inactive) | > 100 µM (inactive) | > 100 µM (inactive) | > 100 µM (inactive) | > 100 µM (inactive) | > 100 µM (inactive) | > 100 µM (inactive) | > 100 µM (inactive) | > 100 µM (inactive) |  | > 100 µM (inactive) | > 100 µM (inactive) | > 100 µM (inactive) | 39.1 µM (inactive) | > 100 µM (inactive) | 
O=c1ccn([C@H]2CSC[C@@H](CO)C2)c(=O)[nH]1 | > 100 µM (inactive) | > 100 µM (inactive) | > 100 µM (inactive) | > 100 µM (inactive) | > 100 µM (inactive) | > 100 µM (inactive) | > 100 µM (inactive) | > 100 µM (inactive) | > 100 µM (inactive) | > 100 µM (inactive) | > 100 µM (inactive) |  | > 100 µM (inactive) | > 100 µM (inactive) | > 100 µM (inactive) | > 100 µM (inactive) | > 100 µM (inactive) | > 100 µM (inactive)
CCOC(=O)C(=O)Nc1c(N(CC)CC)n2ccccc2nc1=O | > 100 µM (inactive) | > 100 µM (inactive) |  | > 100 µM (inactive) |  | > 100 µM (inactive) | > 100 µM (inactive) | > 100 µM (inactive) | > 100 µM (inactive) |  | > 100 µM (inactive) |  | > 100 µM (inactive) | > 100 µM (inactive) | > 100 µM (inactive) | > 100 µM (inactive) | > 100 µM (inactive) | > 100 µM (inactive)
On1c(-c2ccccc2)c(-c2ccccc2N2CCCC2)c2ccccc21 | > 100 µM (inactive) | > 100 µM (inactive) | > 100 µM (inactive) | > 100 µM (inactive) | > 100 µM (inactive) | > 100 µM (inactive) | > 100 µM (inactive) | > 100 µM (inactive) | > 100 µM (inactive) | > 100 µM (inactive) | > 100 µM (inactive) |  | > 100 µM (inactive) | > 100 µM (inactive) | > 100 µM (inactive) | > 100 µM (inactive) | > 100 µM (inactive) | > 100 µM (inactive)
COc1ccc(OCC(=O)O)c2c1CCC(C)C2=O (centres undefined) | > 100 µM (inactive) | > 100 µM (inactive) | > 100 µM (inactive) | > 100 µM (inactive) | > 100 µM (inactive) | > 100 µM (inactive) |  |  | > 100 µM (inactive) | > 100 µM (inactive) | > 100 µM (inactive) |  | > 100 µM (inactive) | > 100 µM (inactive) | > 100 µM (inactive) | > 100 µM (inactive) | > 100 µM (inactive) | > 100 µM (inactive)
CC(=O)O[C@H]1C(=O)[C@@]2(C)C(C(OC(=O)c3ccccc3)[C@]3(O)CC(OC(=O)C(O)C(NC(=O)c4ccc(C)cc4)c4ccccc4)C(C)=C1C3(C)C)[C@]1(OC(C)=O)CO[C@@H]1C[C@@H]2O (some centres undefined) | 0.112 µM (active) | < 0.0025 µM (active) | < 0.0025 µM (active) | < 0.0025 µM (active) | 0.00352 µM (active) | 0.0043 µM (active) |  | 0.00785 µM (active) | < 0.0025 µM (active) | 3.2 µM (inactive) | 0.00743 µM (active) | 0.00628 µM (active) | 0.00573 µM (active) | < 0.0025 µM (active) | 0.0112 µM (active) |  | 0.224 µM (active) | 0.00596 µM (active)
CC[n+]1c(/C=C/c2cc(C(=O)OC)n3c2sc2ccccc23)sc2ccccc21 | 19.1 µM (inactive) | 14.5 µM (inactive) | 13.9 µM (inactive) | 14.7 µM (inactive) | 17.5 µM (inactive) | 16.7 µM (inactive) | 23 µM (inactive) |  | 16.2 µM (inactive) | 17.8 µM (inactive) | 20.8 µM (inactive) |  | 21.5 µM (inactive) | 18.2 µM (inactive) | 23.1 µM (inactive) |  |  | 
O=C(/C=C/c1ccccc1)c1cc(C(=O)/C=C/c2ccccc2)c(O)cc1O | 73.1 µM (inactive) | 60.1 µM (inactive) | > 100 µM (inactive) |  | > 100 µM (inactive) | > 100 µM (inactive) |  | > 100 µM (inactive) | > 100 µM (inactive) | > 10 µM (inactive) | > 100 µM (inactive) |  |  | 47.3 µM (inactive) | > 100 µM (inactive) | > 100 µM (inactive) | > 100 µM (inactive) | 31.9 µM (inactive)
CC(=O)NNc1nc(C)c(C(=O)/C=C/c2ccc(Cl)c(Cl)c2)s1 | > 100 µM (inactive) |  | > 100 µM (inactive) | > 100 µM (inactive) | > 100 µM (inactive) | > 100 µM (inactive) |  | > 100 µM (inactive) | > 100 µM (inactive) |  | > 100 µM (inactive) | > 100 µM (inactive) | > 100 µM (inactive) | > 100 µM (inactive) | > 100 µM (inactive) | > 100 µM (inactive) | > 100 µM (inactive) | > 100 µM (inactive)
